The subject of assay [1] is prostate line LNCap. Description: In vitro cell culture growth assay (MTS), LNCap. It counts as cell-based. The settings on record: Homo sapiens, LNCaP, 72 h, LNCap cells, three days after drug treatment. In a few lines: (§1)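 Plate cells; add inhibitors on day 1; after 3 days' treatment, add MTS; read A490; express as percent growth of vehicle-treated control.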
Assay [2] concerns the target T1, Human mTOR (FLAG-TOR) (Homo sapiens, UniProt P42345).
T1 construct: FLAG
Description: Human mTOR kinase assay with purified enzyme, DELFIA format. It counts as biochemical. An outline of the steps: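 DELFIA readout: Eu-anti-P(T389)-S6K antibody (40 ng/mL, 1 h) on captured His6-S6K from the stopped reaction. Kinase step used purified FLAG-tagged human mTOR with test compound in HEPES (pH 7.4)/MnCl2/DTT buffer, 2 h at room temperature (linear 1–6 h), terminated by EDTA/EGTA.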

Assay [3] has as its target T2, PI3K (Homo sapiens, UniProt P48736).
T2 construct: PI3 Kinase γ IC50; other: PI3 Kinase γ; other: PI3 Kinase γ isoform, fluorescence polarization
Description: Fluorescence polarization assay for PI3K. It counts as biochemical. The settings on record: PI3 Kinase γ; read-out: PI3 Kinase γ IC50. An outline of the steps: (§2)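 Fluorescence-polarization competition readout: after 30–60 min of PIP2/ATP turnover in 1% DMSO, a stop mix with GST-GRP (70 nM) and red probe (10 nM) was added.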

Assay [4] deals with T3, PI3K (Homo sapiens, UniProt P42336).
T3 construct: PI3 Kinase α IC50; other: PI3 Kinase α; other: PI3 Kinase α isoform, fluorescence polarization
T3 sequence (P42336 whole entry, canonical isoform): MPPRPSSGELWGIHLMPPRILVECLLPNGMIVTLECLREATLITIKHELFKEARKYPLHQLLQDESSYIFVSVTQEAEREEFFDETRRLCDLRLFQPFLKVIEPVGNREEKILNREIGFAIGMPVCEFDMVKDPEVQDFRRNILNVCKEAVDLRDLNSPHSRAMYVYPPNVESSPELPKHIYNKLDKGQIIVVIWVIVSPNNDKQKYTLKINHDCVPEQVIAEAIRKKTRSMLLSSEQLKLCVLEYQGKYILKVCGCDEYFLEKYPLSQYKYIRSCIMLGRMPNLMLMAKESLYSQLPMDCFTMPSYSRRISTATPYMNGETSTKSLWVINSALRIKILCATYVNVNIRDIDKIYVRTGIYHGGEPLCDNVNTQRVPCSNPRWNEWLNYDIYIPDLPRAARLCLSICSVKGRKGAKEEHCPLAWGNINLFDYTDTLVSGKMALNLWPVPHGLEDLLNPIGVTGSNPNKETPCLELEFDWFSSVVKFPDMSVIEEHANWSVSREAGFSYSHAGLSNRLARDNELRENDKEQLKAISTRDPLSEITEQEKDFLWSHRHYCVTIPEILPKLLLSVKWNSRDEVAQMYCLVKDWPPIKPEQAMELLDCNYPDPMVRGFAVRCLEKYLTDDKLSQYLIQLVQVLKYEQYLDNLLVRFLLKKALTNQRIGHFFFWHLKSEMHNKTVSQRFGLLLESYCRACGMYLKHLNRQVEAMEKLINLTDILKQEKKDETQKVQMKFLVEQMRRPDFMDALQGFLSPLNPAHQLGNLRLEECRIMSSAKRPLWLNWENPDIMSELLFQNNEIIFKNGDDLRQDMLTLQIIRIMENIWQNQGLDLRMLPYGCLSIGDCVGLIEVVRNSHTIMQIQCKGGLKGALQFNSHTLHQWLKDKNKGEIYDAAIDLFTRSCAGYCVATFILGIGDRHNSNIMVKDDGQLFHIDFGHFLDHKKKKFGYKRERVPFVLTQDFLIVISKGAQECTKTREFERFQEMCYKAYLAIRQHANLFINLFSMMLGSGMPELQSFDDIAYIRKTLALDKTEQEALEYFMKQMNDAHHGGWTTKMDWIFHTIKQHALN
The assay can be described thus: Fluorescence polarization assay for PI3K. The class given is biochemical. As to conditions: PI3 Kinase α; read-out: PI3 Kinase α IC50. An outline of the steps: as §2

Assay [5] has as its system breast line MDA468. Description: In vitro cell culture growth assay (MTS), MDA468. The class given is cell-based. The settings on record: Homo sapiens, 72 h, MDA468 cells, three days after drug treatment. In a few lines:
as §1

pIC50: −log10 of the molar value.

T2 sequence (P48736 whole entry, canonical isoform): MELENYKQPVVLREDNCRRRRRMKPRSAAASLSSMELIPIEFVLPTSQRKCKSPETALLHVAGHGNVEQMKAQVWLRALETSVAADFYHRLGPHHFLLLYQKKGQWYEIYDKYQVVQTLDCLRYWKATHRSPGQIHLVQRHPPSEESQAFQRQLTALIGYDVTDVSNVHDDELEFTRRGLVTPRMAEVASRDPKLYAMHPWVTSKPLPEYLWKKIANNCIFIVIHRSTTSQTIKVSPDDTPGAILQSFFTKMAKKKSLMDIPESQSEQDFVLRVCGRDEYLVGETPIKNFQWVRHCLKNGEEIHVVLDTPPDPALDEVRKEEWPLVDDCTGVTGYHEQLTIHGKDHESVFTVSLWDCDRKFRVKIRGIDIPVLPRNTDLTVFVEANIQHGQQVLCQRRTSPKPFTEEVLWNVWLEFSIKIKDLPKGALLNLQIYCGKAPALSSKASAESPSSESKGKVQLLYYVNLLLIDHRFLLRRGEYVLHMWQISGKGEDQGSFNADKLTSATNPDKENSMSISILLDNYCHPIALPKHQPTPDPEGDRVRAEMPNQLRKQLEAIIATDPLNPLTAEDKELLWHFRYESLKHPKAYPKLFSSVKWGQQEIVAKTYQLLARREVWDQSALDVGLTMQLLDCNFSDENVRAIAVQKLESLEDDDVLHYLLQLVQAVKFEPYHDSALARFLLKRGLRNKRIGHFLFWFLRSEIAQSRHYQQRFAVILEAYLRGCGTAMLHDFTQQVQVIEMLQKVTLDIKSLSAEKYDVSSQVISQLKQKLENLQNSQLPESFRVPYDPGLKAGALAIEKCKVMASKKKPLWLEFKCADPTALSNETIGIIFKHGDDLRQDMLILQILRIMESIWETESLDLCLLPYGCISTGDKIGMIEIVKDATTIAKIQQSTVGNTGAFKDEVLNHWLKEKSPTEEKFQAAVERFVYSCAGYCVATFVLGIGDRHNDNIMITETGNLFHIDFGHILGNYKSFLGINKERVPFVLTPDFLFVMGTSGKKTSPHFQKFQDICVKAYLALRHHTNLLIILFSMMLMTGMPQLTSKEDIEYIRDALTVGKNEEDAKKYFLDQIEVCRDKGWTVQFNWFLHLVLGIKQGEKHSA

Regarding `COC(=O)N1CCC(n2ncc3c(N4CC5CCC(C4)O5)nc(-c4ccc(NC(=O)NCCN(C)C)cc4)nc32)CC1` [Example 169, methyl 4-{6-[4-({[2-(dimethylamino)ethyl]carbamoyl}amino)phenyl]-4-(8-oxa-3-azabicyclo[3.2.1]oct-3-yl)-1H-pyrazolo[3,4-d]pyrimidin-1-yl}piperidine-1-carboxylate], the pIC50 in assay [1] was 6.30; in assay [2], 7.39; in assay [3] it was 5.26; in assay [4], 6.37; in assay [5], 5.66.

For the molecule `COC(=O)N1CCC(n2ncc3c(N4CC5CCC(C4)O5)nc(-c4ccc(NC(=O)NCCN5CCN(C)CC5)cc4)nc32)CC1` [Example 170, methyl 4-{6-[4-({[2-(4-methylpiperazin-1-yl)ethyl]carbamoyl}amino)phenyl]-4-(8-oxa-3-azabicyclo[3.2.1]oct-3-yl)-1H-pyrazolo[3,4-d]pyrimidin-1-yl}piperidine-1-carboxylate], the pIC50 was 5.89 in assay [1]; 7.29 in assay [2]; 5.35 in assay [3]; 6.15 in assay [4]; 5.22 in assay [5].

Take `COC(=O)N1CCC(n2ncc3c(N4CC5CCC(C4)O5)nc(-c4ccc(NC(=O)Nc5cccc(CO)c5)cc4)nc32)CC1` [Example 171, methyl 4-{6-[4-({[3-(hydroxymethyl)phenyl]carbamoyl}amino)phenyl]-4-(8-oxa-3-azabicyclo[3.2.1]oct-3-yl)-1H-pyrazolo[3,4-d]pyrimidin-1-yl}piperidine-1-carboxylate]: the pIC50 is 8.30 in assay [1]; 9.67 in assay [2]; 5.74 in assay [3]; 7.27 in assay [4]; 8.10 in assay [5].

With `COC(=O)N1CCC(n2ncc3c(N4CC5CCC(C4)O5)nc(-c4ccc(NC(=O)Nc5ccccc5CO)cc4)nc32)CC1` [Example 172, methyl 4-{6-[4-({[2-(hydroxymethyl)phenyl]carbamoyl}amino)phenyl]-4-(8-oxa-3-azabicyclo[3.2.1]oct-3-yl)-1H-pyrazolo[3,4-d]pyrimidin-1-yl}piperidine-1-carboxylate], the pIC50 in assay [1] was 6.70; in assay [2], 8.52; in assay [3], 5.76; in assay [4], 5.86; in assay [5], 5.89.

In the case of `CCn1ncc2c(N3CC4CCC(C3)O4)nc(-c3ccc(NC(=O)NCCN)cc3)nc21` [Example 173, 1-(2-aminoethyl)-3-{4-[1-ethyl-4-(8-oxa-3-azabicyclo[3.2.1]oct-3-yl)-1H-pyrazolo[3,4-d]pyrimidin-6-yl]phenyl}urea], the pIC50 was 6.57 in assay [1]; 8.65 in assay [2]; 5.50 in assay [3]; 6.57 in assay [4]; 6.19 in assay [5].

With `CCn1ncc2c(N3CC4CCC(C3)O4)nc(-c3ccc(NC(=O)NCCNC)cc3)nc21` [Example 174, 1-{4-[1-ethyl-4-(8-oxa-3-azabicyclo[3.2.1]oct-3-yl)-1H-pyrazolo[3,4-d]pyrimidin-6-yl]phenyl}-3-[2-(methylamino)ethyl]urea], the negative-log IC50 (pIC50) in assay [1] is 6.72; in assay [2], 8.33; in assay [3], 5.30; in assay [4], 6.63; in assay [5], 6.15.

Turning to `CCn1ncc2c(N3CC4CCC(C3)O4)nc(-c3ccc(NC(=O)NCCN(C)C)cc3)nc21` [Example 175, 1-[2-(dimethylamino)ethyl]-3-{4-[1-ethyl-4-(8-oxa-3-azabicyclo[3.2.1]oct-3-yl)-1H-pyrazolo[3,4-d]pyrimidin-6-yl]phenyl}urea], the pIC50 in assay [1] is 6.46; in assay [2], 7.28; in assay [3] it was 6.18; in assay [4], 6.08; in assay [5] it was 5.90.

In the case of `CCn1ncc2c(N3CC4CCC(C3)O4)nc(-c3ccc(NC(=O)NCCCN)cc3)nc21` [Example 176, 1-(3-aminopropyl)-3-{4-[1-ethyl-4-(8-oxa-3-azabicyclo[3.2.1]oct-3-yl)-1H-pyrazolo[3,4-d]pyrimidin-6-yl]phenyl}urea], the pIC50 was 5.26 in assay [1]; 8.45 in assay [2]; 5.02 in assay [3]; 6.41 in assay [4]; 4.55 in assay [5].

Take `CCn1ncc2c(N3CC4CCC(C3)O4)nc(-c3ccc(NC(=O)NCCCN(C)C)cc3)nc21` [Example 177, 1-[3-(dimethylamino)propyl]-3-{4-[1-ethyl-4-(8-oxa-3-azabicyclo[3.2.1]oct-3-yl)-1H-pyrazolo[3,4-d]pyrimidin-6-yl]phenyl}urea]: the pIC50 was 5.92 in assay [1]; 7.16 in assay [2]; less than 5.00 in assay [3]; 5.78 in assay [4]; 5.35 in assay [5].

As for `CCn1ncc2c(N3CC4CCC(C3)O4)nc(-c3ccc(NC(=O)NCCN4CCN(C)CC4)cc3)nc21` [Example 178, 1-{4-[1-ethyl-4-(8-oxa-3-azabicyclo[3.2.1]oct-3-yl)-1H-pyrazolo[3,4-d]pyrimidin-6-yl]phenyl}-3-[2-(4-methylpiperazin-1-yl)ethyl]urea], the pIC50 is 5.72 in assay [1]; 7.06 in assay [2]; less than 5.00 in assay [3]; 6.02 in assay [4]; 5.24 in assay [5].

`CCn1ncc2c(N3CC4CCC(C3)O4)nc(-c3ccc(NC(=O)NCCN4CCOCC4)cc3)nc21` [Example 179, 1-{4-[1-ethyl-4-(8-oxa-3-azabicyclo[3.2.1]oct-3-yl)-1H-pyrazolo[3,4-d]pyrimidin-6-yl]phenyl}-3-(2-morpholin-4-ylethyl)urea]: the pIC50 in assay [1] is 5.77; in assay [2], 7.18; in assay [3], 5.00; in assay [4], 6.32; in assay [5], 5.30.

`CCn1ncc2c(N3CC4CCC(C3)O4)nc(-c3ccc(NC(=O)Nc4ccc(N5CCN(C)CC5)cc4)cc3)nc21` [Example 180, 1-{4-[1-ethyl-4-(8-oxa-3-azabicyclo[3.2.1]oct-3-yl)-1H-pyrazolo[3,4-d]pyrimidin-6-yl]phenyl}-3-[4-(4-methylpiperazin-1-yl)phenyl]urea]: the pIC50 in assay [1] is more than 9.00; in assay [2] it was 9.56; in assay [3], 5.87; in assay [4] it was 7.25; in assay [5], more than 9.00.

In the case of `CCn1ncc2c(N3CC4CCC(C3)O4)nc(-c3ccc(NC(=O)Nc4ccc(N5CCOCC5)cc4)cc3)nc21` [Example 181, 1-{4-[1-ethyl-4-(8-oxa-3-azabicyclo[3.2.1]oct-3-yl)-1H-pyrazolo[3,4-d]pyrimidin-6-yl]phenyl}-3-(4-morpholin-4-ylphenyl)urea], the pIC50 in assay [1] was more than 9.00; in assay [2], 9.74; in assay [3], 5.44; in assay [4] it was 6.76; in assay [5], more than 9.00.

Regarding `CCn1ncc2c(N3CC4CCC(C3)O4)nc(-c3ccc(NC(=O)Nc4ccc(CO)cc4)cc3)nc21` [Example 182, 1-{4-[1-ethyl-4-(8-oxa-3-azabicyclo[3.2.1]oct-3-yl)-1H-pyrazolo[3,4-d]pyrimidin-6-yl]phenyl}-3-[4-(hydroxymethyl)phenyl]urea], the pIC50 is more than 9.00 in assay [1]; 9.92 in assay [2]; 5.90 in assay [3]; 7.40 in assay [4]; more than 9.00 in assay [5].

`CCn1ncc2c(N3CC4CCC(C3)O4)nc(-c3ccc(NC(=O)Nc4ccc(CCO)cc4)cc3)nc21` [Example 183, 1-{4-[1-ethyl-4-(8-oxa-3-azabicyclo[3.2.1]oct-3-yl)-1H-pyrazolo[3,4-d]pyrimidin-6-yl]phenyl}-3-[4-(2-hydroxyethyl)phenyl]urea]: the pIC50 is more than 9.00 in assay [1]; 9.92 in assay [2]; 5.82 in assay [3]; 7.17 in assay [4]; more than 9.00 in assay [5].

For the molecule `CCn1ncc2c(N3CC4CCC(C3)O4)nc(-c3ccc(NC(=O)Nc4ccc(N5CCOCC5)nc4)cc3)nc21` [Example 184, 1-{4-[1-ethyl-4-(8-oxa-3-azabicyclo[3.2.1]oct-3-yl)-1H-pyrazolo[3,4-d]pyrimidin-6-yl]phenyl}-3-(6-morpholin-4-ylpyridin-3-yl)urea], the pIC50 is 9.00 in assay [1]; 9.53 in assay [2]; 5.11 in assay [3]; 5.67 in assay [4]; 8.10 in assay [5].

Regarding `CCn1ncc2c(N3CC4CCC(C3)O4)nc(-c3ccc(NC(=O)Nc4ccc(N5CCN(C)CC5)nc4)cc3)nc21` [Example 185, 1-{4-[1-ethyl-4-(8-oxa-3-azabicyclo[3.2.1]oct-3-yl)-1H-pyrazolo[3,4-d]pyrimidin-6-yl]phenyl}-3-[6-(4-methylpiperazin-1-yl)pyridin-3-yl]urea], the pIC50 in assay [1] was more than 9.00; in assay [2], 9.13; in assay [3], 5.64; in assay [4], 6.71; in assay [5], 9.00.

Values taken from US8129371B2, “Thienopyrimidine and pyrazolopyrimidine compounds and their use as mTOR kinase and PI3 kinase inhibitors” (Wyeth LLC, priority 2007, dated 2012).
